# In PubChem BioAssay AID2060492 (Molecular Pharmacology Branch, DTP, NCI, 2025):
# System: 695427-040-R-J1-PDC complex spheroids, viability percent T/C
# Assay: Anticancer human tumor 695427-040-R-J1-PDC patient-derived colon adenocarcinoma cell line growth inhibition [GQUAD]
# Details: for IC50: curve of first compound; for viability, T/C: stronger effect = lower value
# Text: DNA G-quadruplex Stabilizer Agents in Combinations in Complex Spheroids
# A high-throughput screen of multi-cell type tumor spheroids was designed to identify active combinations of DNA G-quadruplex stabilizer agents and targeted small molecules. Complex spheroids include a stromal component modeled by human endothelial cells (HUVEC) and fibroblasts modeled by human mesenchymal stem cells (MSCs). The concentration ranges selected for each drug and investigational agent were based upon clinically achievable concentrations if the clinical Cmax of the agent was known.
# Compounds. The drugs and investigational agents: pidnarulex (CX-5461; NSC782164), APTO-253 (NSC789042), BRACO-19 (NSC847499), peposertib (NSC802822), ceralasertib (NSC780249), elimusertib (NSC800525), camonsertib (NSC841442), AZD-1390 (NSC803789), olaparib (NSC753686), talazoparib (NSC767125), ART-558 (NSC835418), sotorasib (NSC818433), MRTX-1133 (NSC836407), SN-38 (NSC673596), topotecan (NSC609699), etoposide (NSC141540), doxorubicin (NSC123127), gemcitabine (NSC613327), 5-fluorouracil (NSC19893), paclitaxel (NSC125973), vemurafenib (NSC761431), panobinostat (NSC761190), R-306465 (JNJ-16241199; NSC773264), adavosertib (NSC754352), TP-3654 (NSC805149), carboplatin (NSC241240), KSQ-4279 (NSC840948), and staurosporine (NSC755774) were obtained from the National Cancer Institute (NCI) Developmental Therapeutics Program Chemical Repository (34). The FDA-approved anticancer drug set is available from the NCI Developmental Therapeutics Program. […] The stock solutions were prepared in dimethyl sulfoxide (DMSO, Sigma-Aldrich, St. Louis, MO, cat. D2650) at 800-fold the tested concentration and stored at -70 degrees C prior to their use. All drugs and investigational agents were tested over a range starting from a high concentration at or near the clinical Cmax and decreasing in half-log increments. If the clinical Cmax for an agent had not been determined, the highest concentration tested was 10 microM.
# 2.3 Cell Culture. All cells were maintained in an incubator at 37 degrees C and 5% CO2 with 95% humidity. The PDC lines were cultured according to standard operating procedures established by the NCI PDMR. All PDCs were thawed and cultured in Matrigel-coated flasks prepared with a working solution of 1X Ham's F-12 nutrient mix, without supplementation (Invitrogen, cat. 11765054), 100 U/mL penicillin-streptomycin (Invitrogen, cat. 15140122), and 2.5% Matrigel (Corning Inc., cat. 354248) for the first three passages. The 857933-349-R-J2-PDC line was cultured in 6C/Colon 1B media, which includes advanced DMEM/F-12 (Thermo Fisher Scientific, cat. 12634028), 10 mM HEPES (Thermo Fisher Scientific, cat. 15630080), 1X GlutaMAX supplement (Thermo Fisher Scientific, cat. 35050061), 0.1 mg/mL primocin (InvivoGen, cat. ant-pm-2), 10% defined fetal bovine serum, heat inactivated (HyClone Laboratories Inc., cat. SH30070.03HI), 50% L-WRN conditioned media (ATCC, cat. CRL-3276), 1.25 mM N-Acetyl-L-cysteine (Sigma-Aldrich, cat. A9165), 10 mM nicotinamide (Sigma-Aldrich, cat. N0636), 1X B-27 supplement (Thermo Fisher Scientific, cat. 17504044), 1X N-2 supplement (Thermo Fisher Scientific, cat. 17502048), 10 microM Y-27632 dihydrochloride (Tocris Bioscience, cat. 1254), and 50 ng/mL human EGF recombinant protein (Thermo Fisher Scientific, cat. PHG0311). The 485176-168-R4-J1-PDC line was cultured in Panc media, which includes all 6C/Colon 1B media components plus 100 ng/mL human FGF-10 (Thermo Fisher Scientific, cat. 100-26), 500 nM SB-431542 (Selleckchem, cat. S1067), and gastrin (Tocris, cat. 3006).
# […]
# [1] = second compound 0.0316 µM, first compound 0.0316 µM
# [2] = second compound 0.0316 µM, first compound 0.1 µM
# [3] = second compound 0.0316 µM, first compound 0.316 µM
# [4] = second compound 0.0316 µM, first compound 1 µM
# [5] = second compound 0.0316 µM, first compound 3.16 µM
# [6] = second compound 0.0316 µM, first compound 10 µM
# [7] = second compound 0.1 µM, first compound 0.0316 µM
# [8] = second compound 0.1 µM, first compound 0.1 µM
# [9] = second compound 0.1 µM, first compound 0.316 µM
# [10] = second compound 0.1 µM, first compound 1 µM
# [11] = second compound 0.1 µM, first compound 3.16 µM
# [12] = second compound 0.1 µM, first compound 10 µM
# [13] = second compound 0.316 µM, first compound 0.0316 µM
# [14] = second compound 0.316 µM, first compound 0.1 µM
# [15] = second compound 0.316 µM, first compound 0.316 µM
# [16] = second compound 0.316 µM, first compound 1 µM
# [17] = second compound 0.316 µM, first compound 3.16 µM
# [18] = second compound 0.316 µM, first compound 10 µM
# [19] = second compound 1 µM, first compound 0.0316 µM
# [20] = second compound 1 µM, first compound 0.1 µM
# [21] = second compound 1 µM, first compound 0.316 µM
# [22] = second compound 1 µM, first compound 1 µM
# [23] = second compound 1 µM, first compound 3.16 µM
# [24] = second compound 1 µM, first compound 10 µM
# [25] = second compound 3.16 µM, first compound 0.0316 µM
# [26] = second compound 3.16 µM, first compound 0.1 µM
# [27] = second compound 3.16 µM, first compound 0.316 µM
# [28] = second compound 3.16 µM, first compound 1 µM
# [29] = second compound 3.16 µM, first compound 3.16 µM
# [30] = second compound 3.16 µM, first compound 10 µM
# [31] = second compound 10 µM, first compound 0.0316 µM
# [32] = second compound 10 µM, first compound 0.1 µM
# [33] = second compound 10 µM, first compound 0.316 µM
# [34] = second compound 10 µM, first compound 1 µM
# [35] = second compound 10 µM, first compound 3.16 µM
# [36] = second compound 10 µM, first compound 10 µM
# 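Further: spheroids exposed to compounds for seven days before readout.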
structure (smiles),measurement,setting,value
CC1COCCN1c1cc(-c2ccnn2C)c2ccnc(-c3ccn[nH]3)c2n1 (centres undefined) + CN(C)c1ccc(Nc2c3ccc(NC(=O)CCN4CCCC4)cc3nc3cc(NC(=O)CCN4CCCC4)ccc23)cc1,IC50,second compound 0.0316 µM,1250 nM
same,IC50,second compound 0.1 µM,1360 nM
same,IC50,second compound 0.316 µM,1240 nM
same,IC50,second compound 1 µM,942 nM
same,IC50,second compound 3.16 µM,749 nM
same,IC50,second compound 10 µM,454 nM
same,"viability, T/C",[1],95.2%
same,"viability, T/C",[2],78.8%
same,"viability, T/C",[3],63%
same,"viability, T/C",[4],51%
same,"viability, T/C",[5],44.9%
same,"viability, T/C",[6],39.4%
same,"viability, T/C",[7],100%
same,"viability, T/C",[8],75.9%
same,"viability, T/C",[9],63.9%
same,"viability, T/C",[10],52%
same,"viability, T/C",[11],45.3%
same,"viability, T/C",[12],39.1%
same,"viability, T/C",[13],87.7%
same,"viability, T/C",[14],76.3%
same,"viability, T/C",[15],56.3%
same,"viability, T/C",[16],49.3%
same,"viability, T/C",[17],46.8%
same,"viability, T/C",[18],42.4%
same,"viability, T/C",[19],96.7%
same,"viability, T/C",[20],81.9%
same,"viability, T/C",[21],60.3%
same,"viability, T/C",[22],49.7%
same,"viability, T/C",[23],45.9%
same,"viability, T/C",[24],39.1%
same,"viability, T/C",[25],89.3%
same,"viability, T/C",[26],74.5%
same,"viability, T/C",[27],55.5%
same,"viability, T/C",[28],48.9%
same,"viability, T/C",[29],43.8%
same,"viability, T/C",[30],39.9%
same,"viability, T/C",[31],86%
same,"viability, T/C",[32],66.1%
same,"viability, T/C",[33],50.5%
same,"viability, T/C",[34],46.8%
same,"viability, T/C",[35],40.2%
same,"viability, T/C",[36],37%
CC1COCCN1c1cc(C2(O)CC3CCC(C2)O3)c2cnn(-c3ccn[nH]3)c2n1 (centres undefined) + CN(C)c1ccc(Nc2c3ccc(NC(=O)CCN4CCCC4)cc3nc3cc(NC(=O)CCN4CCCC4)ccc23)cc1,IC50,second compound 0.0316 µM,2300 nM
same,IC50,second compound 0.1 µM,2040 nM
same,IC50,second compound 0.316 µM,2010 nM
same,IC50,second compound 1 µM,2270 nM
same,IC50,second compound 3.16 µM,1540 nM
same,IC50,second compound 10 µM,873 nM
same,"viability, T/C",[1],105%
same,"viability, T/C",[2],79.7%
same,"viability, T/C",[3],73.6%
same,"viability, T/C",[4],55.5%
same,"viability, T/C",[5],48%
same,"viability, T/C",[6],39.6%
same,"viability, T/C",[7],100%
same,"viability, T/C",[8],81.9%
same,"viability, T/C",[9],69.4%
same,"viability, T/C",[10],57.2%
same,"viability, T/C",[11],45.4%
same,"viability, T/C",[12],38.1%
same,"viability, T/C",[13],89.3%
same,"viability, T/C",[14],87.1%
same,"viability, T/C",[15],70.3%
same,"viability, T/C",[16],57.4%
same,"viability, T/C",[17],46.4%
same,"viability, T/C",[18],39%
same,"viability, T/C",[19],91.3%
same,"viability, T/C",[20],80.7%
same,"viability, T/C",[21],67.1%
same,"viability, T/C",[22],53.9%
same,"viability, T/C",[23],50.9%
same,"viability, T/C",[24],38.6%
same,"viability, T/C",[25],81.9%
same,"viability, T/C",[26],78.1%
same,"viability, T/C",[27],69.9%
same,"viability, T/C",[28],51.8%
same,"viability, T/C",[29],46.1%
same,"viability, T/C",[30],37.5%
same,"viability, T/C",[31],83.9%
same,"viability, T/C",[32],78.2%
same,"viability, T/C",[33],66.9%
same,"viability, T/C",[34],46.4%
same,"viability, T/C",[35],41.2%
same,"viability, T/C",[36],35.5%
